The results in this text go back to the METLIN SMRT retention time set (Domingo-Almenara et al. 2019).

The nature of the data set: gradient 5% acetonitrile 3 min, to 50% in 2 min, to 85% in 15 min, held 3 min, 100 µL/min. Conditions: column: Zorbax Extend-C18 2.1 x 50 mm; eluents: water / acetonitrile, 0.1% formic acid. In short, it runs like this:
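Pure standards were analyzed in mixtures of ~100 molecules using HPLC coupled to a quadrupole time-of-flight mass spectrometer, in both positive and negative ionization mode. Separation used a Zorbax Extend-C18 column (2.1 × 50 mm, 1.8 μm) at 100 μL/min, with water and acetonitrile each containing 0.1% formic acid. Dead and dwell volumes were 40 μL and 900 μL, and data were collected over 3 months. Retention time was read from computationally picked adduct peaks, each inspected manually.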
The molecule `CS(=O)(=O)N1CCC(C(=O)Nc2ccccc2F)Oc2ccc(Cl)cc21` (stereo not drawn) returned an RP-LC retention time of 960 s. With `COc1ccc(NC(=O)Cc2c(C)nn(-c3nc(-c4ccc(F)cc4)cs3)c2C)c(OC)c1` the figure was 1160 s.

Regarding `Cc1ccc(CNC(=O)C2(C)CCN(S(=O)(=O)c3ccc(Br)s3)CC2)cc1`, the RP-LC retention time came to 1050 s. `Cc1sc2cc(C(=O)NC(C)C)[nH]c2c1CN1CCCCC1` registered an RP-LC retention time of 643 s. The figure for `COc1ccc(S(=O)(=O)N2CCc3c(C(=O)NCCN(C)C)cccc32)cc1` is 635 s. Molecule `Cc1ccc(-c2cc(C(N)=O)[nH]n2)cc1C` came in with an RP-LC retention time of 690 s.

For the molecule `CCC(C)NC(=O)C1CCCN(c2nnc(C)c3c(C)n(-c4ccc(Cl)cc4)nc23)C1` (stereo not drawn), the RP-LC retention time came out at 746 s. With `COc1ccc(-c2noc(CN3C(=O)C(C)Oc4ccccc43)n2)c(OC)c1` (stereo not drawn) the figure was 956 s; with `O=[N+]([O-])c1cccc(-c2nc(N3CCCCCC3)c3ccccc3n2)c1`, 1030 s. The figure for `Cc1ccc(C)c(-c2coc(-c3ccc(NC(=O)C(C)(C)C)cc3)n2)c1` is 1280 s; for `O=C(c1ccccc1)N1CCC(Oc2cc(N3CCOCC3)ncn2)C1` (stereo not drawn) it is 676 s. With `CCn1c(C(=O)N2CCOCC2)cc2c(=O)oc3ccccc3c21` the figure was 713 s; with `Cc1ccc2[nH]cc(CCNC(=O)CSCc3nnc(C(=O)Nc4ccc(F)cc4)s3)c2c1`, 918 s.

`Cc1cccc(N2CCN(C3=NC(=O)C(Cc4ccccc4)S3)CC2)c1` (stereo not drawn) displayed an RP-LC retention time of 910 s. `Cn1nc(C(=O)N2CCCCC2)c2c1CCN(C(=O)CCC(=O)NCC1CCCO1)C2` (stereo not drawn) showed an RP-LC retention time of 608 s. Take `CC1=C(c2ccccc2)S(=O)(=O)N=C1N1CCCN(C(=O)c2ccoc2)CC1`: the RP-LC retention time came to 728 s.

The molecule `Cn1c(=O)oc2cc(-c3noc(-c4cccc(F)c4)n3)ccc21` yielded an RP-LC retention time of 1020 s. As to `Cn1c(=O)n(CC(=O)N2CCc3ccccc3C2)c(=O)c2cnc(-c3ccc(Cl)cc3)nc21`, the RP-LC retention time stood at 1140 s. `CC(C)NC(=O)Cn1cccc(-c2nc(-c3ccc(F)cc3)no2)c1=O` showed an RP-LC retention time of 735 s. With `COc1ccc(-c2nc(NC(=O)c3ccc(C#N)cc3)sc2C)cc1` the figure was 962 s.

In the case of `CCCc1noc(-c2ccc(-n3ncc(C(=O)N4CCCC(C)C4)c3C)nc2)n1` (stereo not drawn), the RP-LC retention time stood at 1130 s. With `COc1ccc(NC(=O)Cn2cc(-c3ccccc3C)c(N3CCOCC3)n2)c(OC)c1` the figure was 959 s; with `Cn1c(=O)n(Cc2ccccc2)c(=O)c2c1nc(N1CCNCC1)n2Cc1ccccc1`, 672 s. The figure for `CN(C)S(=O)(=O)c1ccc(C(=O)Nc2nnc(-c3cc4ccccc4o3)o2)cc1` is 789 s. The figure for `CC1CC(=O)c2cnc(N3CCN(Cc4ccc5c(c4)OCO5)CC3)nc2C1` (stereo not drawn) is 632 s. For the molecule `O=C(C1COCC(=O)N1Cc1ccccc1)N1CCN(c2ccc(C(F)(F)F)cn2)CC1` (stereo not drawn), the RP-LC retention time amounted to 782 s. With `COCC1CN(C2CCC2)CC12CCN(C(=O)c1ccsc1)CC2` (stereo not drawn) the figure was 592 s; with `COc1ccc(-c2nc3cnccn3c2Nc2cccc(C)c2C)cc1`, 953 s; with `CC(C)n1cc(CN2CCOCCNC(=O)CC2)c2ccccc21`, 631 s. With `CC(C)OC(=O)Cn1nc(-c2nc(-c3ccc(Cl)cc3)no2)ccc1=O` the figure was 1080 s. Turning to `CC(C)CN1CCN(C(=O)c2cc3c(s2)CCN(C(=O)c2ccc(Cl)cc2)C3)CC1`, the RP-LC retention time turned out to be 664 s.

`Cc1ccc2[nH]cc(CCNC(=O)Cn3c4ccccc4c4cnn(C)c(=O)c43)c2c1` had an RP-LC retention time of 839 s. The figure for `CCc1ccc(N2C[C@@]34C=C[C@@H](O3)[C@H](C(=O)OC)[C@@H]4C2=O)cc1` is 793 s; for `Cc1ccc(CNC(=O)C2(C)Cn3nc(C(=O)NCCN4CCCCC4)cc3C(=O)N2C)cc1` (stereo not drawn) it is 606 s; for `CCOc1ccccc1-c1noc(Cn2cnc3c(cnn3-c3ccc(C)c(Cl)c3)c2=O)n1` it is 1230 s. The figure for `CCc1nccn1Cc1noc(-c2cccc(OC)c2)n1` is 557 s; for `CCN1CCN(CCCNC(=O)c2ccc(CS(=O)c3ccccc3Cl)o2)CC1` (stereo not drawn) it is 567 s. On to `COc1ccccc1NC(=O)c1cc2c(=O)oc3ccccc3c2n1C`, for which the RP-LC retention time came out at 981 s.

Consider `COc1ccc(C(=O)N2CCN(c3nc(-c4ccccc4)no3)CC2)cc1OC`, for which the RP-LC retention time turned out to be 849 s.

For the molecule `CC1CCN(c2ncc(NC(=O)c3ccc(Br)cc3)cc2C(=O)O)CC1`, the RP-LC retention time worked out at 759 s. The molecule `COC(=O)c1ccccc1NC(=O)c1c(O)c2cccnc2n(-c2ccc(F)cc2)c1=O` gave an RP-LC retention time of 1180 s. `CCOc1ccc(-n2cc(C(=O)OC(C)C)c3ccccc3c2=O)cc1` displayed an RP-LC retention time of 1220 s. For `Cc1cc(SCC(=O)c2ccc3c(c2)OCO3)nc(C(C)C)n1`, the RP-LC retention time worked out at 764 s. With `CC1CN([C@H]2C[C@@H](N=[N+]=[N-])[C@@H](CO)O2)C(=O)NC1=O` (stereo partly drawn) the figure was 644 s; with `CCOCCCNC(=O)N1CCN(c2nc3ccccc3n(Cc3ccccc3)c2=O)CC1`, 914 s.

Turning to `O=C(NCc1ccc(N2CCOCC2)cc1)C1CCCN(c2cnc3nccnc3c2)C1` (stereo not drawn), the RP-LC retention time is 728 s. With `CNC(=O)[C@@H]1CN(C(=O)C2CC=CCC2)C[C@H]1c1nc(C)no1` (stereo partly drawn) the figure was 642 s. As for `Cc1nc(-c2ccc(C(=O)N(C)C)c(F)c2)no1`, the RP-LC retention time turned out to be 693 s. With `CC(C)(Oc1ccc(Cl)cc1)C(=O)NCCS(=O)(=O)N1CCc2ccccc2C1`, the RP-LC retention time is 1000 s. The figure for `Cc1cc(C(=O)N2CCCCC2)c2c(=O)n(CC(=O)Nc3cccc(C#N)c3)c(=O)n(C)c2n1` is 791 s; for `COc1ccc(CNC(=O)c2ccc3c(=O)n(-c4ccc(F)cc4)c(N4CCCC4)nc3c2)cc1` it is 852 s; for `Cc1ccc(CNC(=O)CCc2c(C)nn(-c3cc(N4CCCC4)ncn3)c2C)o1` it is 745 s. The figure for `CCOC(=O)c1cccc(NC(=O)NC2CCN(c3ccccc3)C2=O)c1` (stereo not drawn) is 683 s. The figure for `Cc1noc(C)c1S(=O)(=O)N1CCc2c(c(-c3nnc(-c4ccccc4)o3)nn2C)C1` is 880 s; for `Cc1noc(-c2cccnc2SCC(=O)Nc2cccc(Br)c2)n1` it is 895 s; for `CN(C)[C@@H]1CN(C(=O)CCc2nc3ccc(Cl)cc3[nH]2)C[C@H]1CO` it is 529 s.

`Cc1ccc(CNC(=O)Cn2ncc3c(c2=O)N(CC2CC2)C(=O)CS3)cc1` showed an RP-LC retention time of 784 s. The figure for `COc1ccc(C(=O)N2C[C@@H](Oc3cccnc3)C[C@H]2C(=O)NC2CC2)cn1` is 562 s.
